Values of other authors, collected in patent US7955790B2, “Skin substitutes with improved barrier function” (Stratatech Corporation, priority 2001, dated 2011).
Where two headings read alike, the source gives them in different places.

Legend:
[1] = tested on: in vitro Cultures; settings: for Lipid Composition: substance added to in vitro cultures
[2] = tested on: in vitro Cultures; settings: substance added to in vitro cultures

**Q.** With `O=C1O[C@H]([C@@H](O)CO)C(O)=C1O` [Vitamin C, ascorbic acid] as the compound, how does the “overall SC architecture” value ([1]; skin equivalent cultures, electron microscopy) read?
**A.** improved

**Q.** What about the “Lipid Composition” value [1] of the same compound?
**A.** Major

**Q.** And the “Lipid Composition” value ([1]; listed as vitamin C)?
**A.** improved

**Q.** For “EGF: epidermal growth factor added to in vitro cultures”, which “Lipid Composition” value [1] is on record?
**A.** High triglycerides

**Q.** For Estrogen, which “Barrier Function” value [2] is on record?
**A.** Accelerates

**Q.** With Vitamin D as the compound, how does the “Barrier Function” value ([2]; listed as vitamin D) read?
**A.** improvements in some studies

**Q.** With Vitamin E as the compound, how does the “Lipid Composition” value [1] read?
**A.** No effect
